Results on 36 compounds are retold here after patent US20250115569A1, “SULFONAMIDE COMPOUNDS FOR THE TREATMENT OF NEUROLOGICAL CONDITIONS” (LARIO THERAPEUTICS LIMITED, priority 2021, published 2025).

Molecules are shown by their SMILES.

Sequence of Cav2.3 (Q15878 whole entry, looked up): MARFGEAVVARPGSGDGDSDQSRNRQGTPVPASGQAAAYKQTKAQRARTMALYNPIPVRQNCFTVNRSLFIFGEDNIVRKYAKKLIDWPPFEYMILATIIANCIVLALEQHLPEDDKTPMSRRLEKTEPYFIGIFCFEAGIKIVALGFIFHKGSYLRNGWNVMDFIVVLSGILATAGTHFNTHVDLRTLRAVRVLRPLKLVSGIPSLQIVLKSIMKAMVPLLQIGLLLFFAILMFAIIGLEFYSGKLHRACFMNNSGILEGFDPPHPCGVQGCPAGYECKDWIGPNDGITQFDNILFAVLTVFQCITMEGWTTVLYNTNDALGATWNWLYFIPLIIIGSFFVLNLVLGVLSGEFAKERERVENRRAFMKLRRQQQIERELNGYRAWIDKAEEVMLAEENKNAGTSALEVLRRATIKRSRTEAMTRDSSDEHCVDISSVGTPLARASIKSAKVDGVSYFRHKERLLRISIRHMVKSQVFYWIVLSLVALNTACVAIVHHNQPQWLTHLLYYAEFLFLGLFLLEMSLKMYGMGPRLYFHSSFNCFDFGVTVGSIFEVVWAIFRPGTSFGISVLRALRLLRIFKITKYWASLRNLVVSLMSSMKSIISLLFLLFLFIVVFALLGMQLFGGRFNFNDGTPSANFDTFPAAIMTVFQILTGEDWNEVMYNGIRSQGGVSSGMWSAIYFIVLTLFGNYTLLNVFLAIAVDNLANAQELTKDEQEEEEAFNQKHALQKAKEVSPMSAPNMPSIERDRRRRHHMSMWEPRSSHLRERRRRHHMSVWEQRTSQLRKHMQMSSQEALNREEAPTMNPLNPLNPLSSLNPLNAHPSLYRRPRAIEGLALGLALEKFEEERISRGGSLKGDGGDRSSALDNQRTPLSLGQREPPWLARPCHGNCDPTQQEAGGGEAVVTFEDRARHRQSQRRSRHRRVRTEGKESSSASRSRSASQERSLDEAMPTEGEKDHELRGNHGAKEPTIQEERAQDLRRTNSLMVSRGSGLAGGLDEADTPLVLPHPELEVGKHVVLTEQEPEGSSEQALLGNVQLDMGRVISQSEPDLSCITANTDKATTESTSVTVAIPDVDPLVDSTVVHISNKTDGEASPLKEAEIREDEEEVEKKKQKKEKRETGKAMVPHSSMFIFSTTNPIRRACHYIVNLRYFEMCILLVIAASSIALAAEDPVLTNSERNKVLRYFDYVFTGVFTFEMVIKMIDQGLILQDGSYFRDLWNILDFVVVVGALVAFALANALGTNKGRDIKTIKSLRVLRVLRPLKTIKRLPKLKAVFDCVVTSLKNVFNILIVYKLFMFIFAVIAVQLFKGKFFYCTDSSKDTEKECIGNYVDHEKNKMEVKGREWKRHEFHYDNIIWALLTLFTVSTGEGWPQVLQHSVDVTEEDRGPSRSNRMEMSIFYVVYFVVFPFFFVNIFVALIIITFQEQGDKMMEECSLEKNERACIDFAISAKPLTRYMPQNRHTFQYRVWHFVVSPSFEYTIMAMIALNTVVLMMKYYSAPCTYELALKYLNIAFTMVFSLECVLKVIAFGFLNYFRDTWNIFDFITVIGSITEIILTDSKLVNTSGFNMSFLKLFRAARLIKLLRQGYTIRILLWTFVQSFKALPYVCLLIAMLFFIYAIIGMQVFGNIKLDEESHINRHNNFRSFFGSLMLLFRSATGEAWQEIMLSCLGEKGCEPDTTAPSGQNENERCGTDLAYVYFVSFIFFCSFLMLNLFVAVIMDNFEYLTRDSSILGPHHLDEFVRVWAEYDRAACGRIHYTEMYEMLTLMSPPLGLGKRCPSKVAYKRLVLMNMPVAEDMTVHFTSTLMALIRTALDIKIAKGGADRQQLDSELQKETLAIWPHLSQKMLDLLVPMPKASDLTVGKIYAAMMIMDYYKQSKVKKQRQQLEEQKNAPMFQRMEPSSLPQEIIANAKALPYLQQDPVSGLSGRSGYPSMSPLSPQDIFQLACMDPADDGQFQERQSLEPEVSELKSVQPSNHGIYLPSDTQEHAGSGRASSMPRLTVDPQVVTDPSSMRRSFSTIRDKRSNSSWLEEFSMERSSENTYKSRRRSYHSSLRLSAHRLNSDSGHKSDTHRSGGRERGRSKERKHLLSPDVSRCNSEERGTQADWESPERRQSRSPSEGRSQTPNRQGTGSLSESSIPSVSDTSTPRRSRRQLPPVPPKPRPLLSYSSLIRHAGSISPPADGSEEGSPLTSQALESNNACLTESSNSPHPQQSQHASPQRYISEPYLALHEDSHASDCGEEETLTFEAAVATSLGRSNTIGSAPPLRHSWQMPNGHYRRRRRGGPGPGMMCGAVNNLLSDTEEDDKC

The test addresses Cav2.3 (Homo sapiens, UniProt Q15878). The test can be described thus: Human Cav2.3 channel calcium-influx assay. Format: cell-based. The conditions noted are these: Fluo8 fluorescence, HEK-293 T-Rex/Kir2.1/Cav2.3e cells, without pluronic acid, read-out: Cav2.3 (pIC50) (converted). In a few lines: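 Signal = peak fluorescence (5–130 s) minus baseline (1–2 s), normalized to neutral (0) and inhibitor (−100) controls as % effect. Depolarization used final 20 mM KCl, 130 mM NaCl, 2 mM CaCl2, after 3 min RT compound exposure (30 μM top, half-log, 8 points, 0.3% DMSO) in doxycycline-induced HEK-293 T-Rex/Kir2.1/Cav2.3e-β4-α2δ1 cells with Fluo8 NW.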
As for `CCN(C(c1ccc(F)cc1)C(F)(F)F)S(=O)(=O)c1csc(C(=O)OC)n1` (stereo not drawn) [Example 48, methyl 4-(N-ethyl-N-(2,2,2-trifluoro-1-(4-fluorophenyl)ethyl)sulfamoyl)thiazole-2-carboxylate], the IC50 was 2000 nM. Regarding `CCN(C(c1ccc(F)cc1)C(F)(F)F)S(=O)(=O)c1csc(C(N)=O)n1` (stereo not drawn) [Example 49, 4-(N-ethyl-N-(2,2,2-trifluoro-1-(4-fluorophenyl)ethyl)sulfamoyl)thiazole-2-carboxamide], the IC50 is 339 nM. In the case of `CCN(C(c1ccc(F)cc1)C(F)(F)F)S(=O)(=O)c1csc(C#N)n1` (stereo not drawn) [Example 50, 2-cyano-N-ethyl-N-(2,2,2-trifluoro-1-(4-fluorophenyl)ethyl)thiazole-4-sulfonamide], the IC50 is 240 nM.

On to `CCN(C(c1ccc(F)cc1)C(F)(F)F)S(=O)(=O)c1cncc(C(N)=O)c1` (stereo not drawn) [Example 51, 5-(N-ethyl-N-(2,2,2-trifluoro-1-(4-fluorophenyl)ethyl)sulfamoyl)nicotinamide], for which the IC50 was 372 nM. In the case of `CCN(C(c1ccc(Cl)cc1)C(F)(F)F)S(=O)(=O)c1cncc(C#N)c1` (stereo not drawn) [Example 54, N-(1-(4-chlorophenyl)-2,2,2-trifluoroethyl)-5-cyano-N-ethylpyridine-3-sulfonamide], the IC50 is 37.2 nM.

As for `N#Cc1cncc(S(=O)(=O)N(CCF)C(c2ccc(F)cc2)C(F)(F)F)c1` (stereo not drawn) [Example 64, 5-Cyano-N-(2-fluoroethyl)-N-(2,2,2-trifluoro-1-(4-fluorophenyl)ethyl)pyridine-3-sulfonamide], the IC50 was 178 nM. Regarding `N#Cc1cncc(S(=O)(=O)N(CCF)[C@@H](c2ccc(F)cc2)C(F)(F)F)c1` [Example 65, (S)-5-Cyano-N-(2-fluoroethyl)-N-(2,2,2-trifluoro-1-(4-fluorophenyl)ethyl)pyridine-3-sulfonamide], the IC50 is 3800 nM. With `N#Cc1cncc(S(=O)(=O)N(CCF)[C@H](c2ccc(F)cc2)C(F)(F)F)c1` [Example 66, (R)-5-cyano-N-(2-fluoroethyl)-N-(2,2,2-trifluoro-1-(4-fluorophenyl)ethyl)pyridine-3-sulfonamide] the figure was 40.7 nM; with `CN(C(c1ccc(C(F)(F)F)cc1)C(F)(F)F)S(=O)(=O)c1cncc(C#N)c1` (stereo not drawn) [Example 67, 5-Cyano-N-methyl-N-(2,2,2-trifluoro-1-(4-(trifluoromethyl)phenyl)ethyl)pyridine-3-sulfonamide], 107 nM. As to `CN([C@@H](c1ccc(C(F)(F)F)cc1)C(F)(F)F)S(=O)(=O)c1cncc(C#N)c1` [Example 69, (S)-5-Cyano-N-methyl-N-(2,2,2-trifluoro-1-(4-(trifluoromethyl)phenyl)ethyl)pyridine-3-sulfonamide], the IC50 was 5620 nM. Turning to `CCN(C(c1ccc(F)cc1)C(F)(F)F)S(=O)(=O)c1ncc(C#N)s1` (stereo not drawn) [Example 80, 5-Cyano-N-ethyl-N-(2,2,2-trifluoro-1-(4-fluorophenyl)ethyl)thiazole-2-sulfonamide], the IC50 is 447 nM. For `CCN(C(c1ccc(F)cc1)C(F)(F)F)S(=O)(=O)c1nccs1` (stereo not drawn) [Example 81, N-ethyl-N-(2,2,2-trifluoro-1-(4-fluorophenyl)ethyl)thiazole-2-sulfonamide], the IC50 was 955 nM. As for `CCN(C(c1ccc(F)cc1)C(F)(F)F)S(=O)(=O)c1cnc(C#N)s1` (stereo not drawn) [Example 82, 2-Cyano-N-ethyl-N-(2,2,2-trifluoro-1-(4-fluorophenyl)ethyl)thiazole-5-sulfonamide], the IC50 was 912 nM.

For the compound `CCN([C@@H](c1ccc(F)cc1)C(F)(F)F)S(=O)(=O)c1cnc(C#N)s1` [Example 83, (S)-2-Cyano-N-ethyl-N-(2,2,2-trifluoro-1-(4-fluorophenyl)ethyl)thiazole-5-sulfonamide], the IC50 is 3800 nM. `CCN([C@H](c1ccc(F)cc1)C(F)(F)F)S(=O)(=O)c1cnc(C#N)s1` [Example 84]: the IC50 was 871 nM. With `CCN(C(c1ccc(F)cc1)C(F)(F)F)S(=O)(=O)c1cc(N2CCOCC2)cs1` (stereo not drawn) [Example 92, N-ethyl-4-morpholino-N-(2,2,2-trifluoro-1-(4-fluorophenyl)ethyl)thiophene-2-sulfonamide], the IC50 is 1320 nM. As for `CCN(C(c1ccc(F)cc1)C(F)(F)F)S(=O)(=O)c1cncc(C2COC2)c1` (stereo not drawn) [Example 99, N-ethyl-5-(oxetan-3-yl)-N-(2,2,2-trifluoro-1-(4-fluorophenyl)ethyl)pyridine-3-sulfonamide], the figure is 275 nM.

In the case of `CCN(C(c1ccc(F)cc1)C(F)(F)F)S(=O)(=O)c1ccc(=O)n(C)c1` (stereo not drawn) [Example 100, N-ethyl-1-methyl-6-oxo-N-(2,2,2-trifluoro-1-(4-fluorophenyl)ethyl)-1,6-dihydropyridine-3-sulfonamide], the IC50 was 380 nM.

As to `CCN([C@H](c1ccc(F)cc1)C(F)(F)F)S(=O)(=O)c1ccc(=O)n(C)c1` [Example 101, (R)—N-ethyl-1-methyl-6-oxo-N-(2,2,2-trifluoro-1-(4-fluorophenyl)ethyl)-1,6-dihydropyridine-3-sulfonamide], the IC50 is 182 nM. Consider `CCN([C@@H](c1ccc(F)cc1)C(F)(F)F)S(=O)(=O)c1ccc(=O)n(C)c1` [Example 102, (S)—N-ethyl-1-methyl-6-oxo-N-(2,2,2-trifluoro-1-(4-fluorophenyl)ethyl)-1,6-dihydropyridine-3-sulfonamide], for which the IC50 is 6760 nM. In the case of `CCN([C@@H](c1ccc(OC(F)(F)F)cc1)C(F)(F)F)S(=O)(=O)c1cncc(C#N)c1` [Example 118, (S)-5-Cyano-N-ethyl-N-(2,2,2-trifluoro-1-(4-(trifluoromethoxy)phenyl)ethyl)pyridine-3-sulfonamide], the IC50 is 5620 nM. As for `CCN([C@H](c1ccc(OC(F)(F)F)cc1)C(F)(F)F)S(=O)(=O)c1cncc(C#N)c1` [Example 119, (R)-5-Cyano-N-ethyl-N-(2,2,2-trifluoro-1-(4-(trifluoromethoxy)phenyl)ethyl)pyridine-3-sulfonamide], the IC50 was 87.1 nM. As to `CCN(C(c1ccc(F)cc1)C(F)(F)F)S(=O)(=O)c1cncc(C(C)=O)c1` (stereo not drawn) [Example 120, 5-acetyl-N-ethyl-N-(2,2,2-trifluoro-1-(4-fluorophenyl)ethyl)pyridine-3-sulfonamide], the IC50 is 132 nM. As for `CCN(C(c1ccc(F)cc1)C(F)(F)F)S(=O)(=O)c1cnnc(OC)c1` (stereo not drawn) [Example 121, N-ethyl-6-methoxy-N-(2,2,2-trifluoro-1-(4-fluorophenyl)ethyl)pyridazine-4-sulfonamide], the figure is 191 nM; as for `CCN([C@@H](c1ccc(F)cc1)C(F)(F)F)S(=O)(=O)c1cnnc(OC)c1` [Example 122, (S)—N-ethyl-6-methoxy-N-(2,2,2-trifluoro-1-(4-fluorophenyl)ethyl)pyridazine-4-sulfonamide], 7240 nM; as for `CCN([C@H](c1ccc(F)cc1)C(F)(F)F)S(=O)(=O)c1cnnc(OC)c1` [Example 123, (R)—N-ethyl-6-methoxy-N-(2,2,2-trifluoro-1-(4-fluorophenyl)ethyl)pyridazine-4-sulfonamide], 166 nM.

With `CCN([C@@H](c1ccc(OC)cc1)C(F)(F)F)S(=O)(=O)C1CCOCC1` [Example 126, (S)—N-ethyl-N-(2,2,2-trifluoro-1-(4-methoxyphenyl)ethyl)tetrahydro-2H-pyran-4-sulfonamide], the IC50 is 30200 nM. As for `CCN([C@H](c1ccc(OC)cc1)C(F)(F)F)S(=O)(=O)C1CCOCC1` [Example 127, (R)—N-ethyl-N-(2,2,2-trifluoro-1-(4-methoxyphenyl)ethyl)tetrahydro-2H-pyran-4-sulfonamide], the figure is 309 nM; as for `COc1ccc([C@H](N(C)S(=O)(=O)C2CCOCC2)C(F)(F)F)cc1` [Example 128, (S)—N-methyl-N-(2,2,2-trifluoro-1-(4-methoxyphenyl)ethyl)tetrahydro-2H-pyran-4-sulfonamide], 14100 nM.

`COc1ccc([C@@H](N(C)S(=O)(=O)C2CCOCC2)C(F)(F)F)cc1` [Example 129, (R)—N-methyl-N-(2,2,2-trifluoro-1-(4-methoxyphenyl)ethyl)tetrahydro-2H-pyran-4-sulfonamide]: the IC50 is 1170 nM. `CCN([C@H](c1ccc(F)cc1)C(F)(F)F)S(=O)(=O)c1ccn2ncnc2c1` [Example 137, (R)—N-ethyl-N-(2,2,2-trifluoro-1-(4-fluorophenyl)ethyl)-[1,2,4]triazolo[1,5-a]pyridine-7-sulfonamide]: the IC50 was 72.4 nM.

For `CCN([C@H](c1ccc(F)cc1)C(F)(F)F)S(=O)(=O)c1cnc2[nH]ccc2n1` [Example 140, (R)—N-ethyl-N-(2,2,2-trifluoro-1-(4-fluorophenyl)ethyl)-5H-pyrrolo[2,3-b]pyrazine-2-sulfonamide], the IC50 is 562 nM.

Turning to `CCN([C@H](c1ccc(F)cc1)C(F)(F)F)S(=O)(=O)c1cnc2c(C#N)cnn2c1` [Example 141, (R)-3-cyano-N-ethyl-N-(2,2,2-trifluoro-1-(4-fluorophenyl)ethyl)pyrazolo[1,5-a]pyrimidine-6-sulfonamide], the IC50 is 575 nM. Take `CCN([C@H](c1ccc(F)cc1)C(F)(F)F)S(=O)(=O)c1cn2ccccc2n1` [Example 142, (R)—N-ethyl-N-(2,2,2-trifluoro-1-(4-fluorophenyl)ethyl)imidazo[1,2-a]pyridine-2-sulfonamide]: the IC50 is 1070 nM. Consider `CCN([C@H](c1ccc(F)cc1)C(F)(F)F)S(=O)(=O)c1nc2ccccn2c1Cl` [Example 143, (R)-3-chloro-N-ethyl-N-(2,2,2-trifluoro-1-(4-fluorophenyl)ethyl)imidazo[1,2-a]pyridine-2-sulfonamide], for which the IC50 was 4170 nM. In the case of `CCN([C@H](c1ccc(F)cc1)C(F)(F)F)S(=O)(=O)c1nc2cnccn2n1` [Example 144, (R)—N-ethyl-N-(2,2,2-trifluoro-1-(4-fluorophenyl)ethyl)-[1,2,4]triazolo[1,5-a]pyrazine-2-sulfonamide], the IC50 was 1780 nM.
